Here are results for one compound from patent EP1058679B1.

For the data set the following is noted: from CC[Si](CC)(CC)O[C@@H](CC(=O)O)C(C)(C)C(=O)[C@H](C)[C@@H](OC(=O)OCC(Cl)(Cl)Cl)[C@@H](C)CCC/C(C)=C\C[C@H](O)/C(C)=C/c1csc(C)n1; ester bond; 2,4,6-trichlorobenzoyl chloride, Et3N, DMAP; toluene; 0.79 mM; 25.0 °C; 3.5 h.

As for `CC[Si](CC)(CC)O[C@H]1CC(=O)O[C@H](/C(C)=C/c2csc(C)n2)C/C=C(/C)CCC[C@H](C)[C@H](OC(=O)OCC(Cl)(Cl)Cl)[C@@H](C)C(=O)C1(C)C`, the ring closure, yield of all isomers came to 78%.
